≈ marks a conversion by molar mass, not a printed value. Counter-ions that a name gives are not always drawn. Like-named read-outs stand apart in the source and are kept apart here.
Legend:
[1] = test system: chloroquine-resistant K1 strain of P. falciparum; assay: In vitro antimalarial semiautomated microdilution assay ([3H]-hypoxanthine incorporation), K1 strain; format: cell-based, Plasmodium falciparum; details: Plasmodium falciparum
Procedure, shortened: (§1)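 IC50 comes from Logit regression of [3H]-hypoxanthine incorporation data. Intraerythrocytic P. falciparum taken from asynchronous stock cultures is exposed to OZ compounds in a semiautomated microdilution format.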

[2] = test system: chloroquine-sensitive NF54 strain of P. falciparum; assay: In vitro antimalarial semiautomated microdilution assay ([3H]-hypoxanthine incorporation), NF54 strain; format: cell-based, Plasmodium falciparum; details: Plasmodium falciparum
Procedure, shortened: as §1

[3] = test system: ANKA strain of P. berghei; assay: Single dose STI in vivo screen in infected mice; parameters: species or system Plasmodium berghei; details: for Survival (days) 10 mg/kg po: single 10 mg/kg po in 3% ethanol and 7% Tween 80; for Survival (days) 10 mg/kg po / Survival (days) 10 mg/kg SSV po / Survival (days) 10 mg/kg sc: untreated 6-7 days; for Activity (%) 10 mg/kg po: single 10 mg/kg po in 3% ethanol and 7% Tween 80 on day 1 post-infection; for Activity (%) 10 mg/kg po / Activity (%) 10 mg/kg SSV po / Activity (%) 10 mg/kg sc: percent reduction in parasitemia on day 3; for Survival (days) 10 mg/kg SSV po: single 10 mg/kg po in SSV; for Activity (%) 10 mg/kg SSV po: single 10 mg/kg po in standard suspending vehicle (SSV) on day 1 post-infection; for Survival (days) 10 mg/kg sc: single 10 mg/kg sc in 3% ethanol and 7% Tween 80; for Activity (%) 10 mg/kg sc: single 10 mg/kg sc in 3% ethanol and 7% Tween 80 on day 1 post-infection
[4] = K1, 72 h, read-out: IC50 (ng/ml) K1, chloroquine-resistant K1 strain, 72 h incubation
[5] = NF54, 72 h, read-out: IC50 (ng/ml) NF54, chloroquine-sensitive NF54 strain, 72 h incubation
[6] = chloroquine-resistant K1 strain, 72 h incubation, read-out: IC50 (ng/ml) K1
[7] = chloroquine-sensitive NF54 strain, 72 h incubation, read-out: IC50 (ng/ml) NF54

Compound	IC50 [1, 4] [ng/mL]	IC50 [2, 5] [ng/mL]	Survival (days) 10 mg/kg po [3]	Activity (%) 10 mg/kg po [3]	Survival (days) 10 mg/kg SSV po [3]	Activity (%) 10 mg/kg SSV po [3]	Survival (days) 10 mg/kg sc [3]	Activity (%) 10 mg/kg sc [3]	IC50 [1, 6] [ng/mL]	IC50 [2, 7] [ng/mL]
CN(C)S(=O)(=O)N1CCC2(CC1)OOC1(O2)C2CC3CC(C2)CC1C3 (stereo not shown) [OZ190, Adamantane-2-spiro-3′-8′-(dimethylaminosulfonyl)-1′,2′,4′-trioxa-8′-azaspiro[4.5]decane]	0.16 (≈ 0.43 nM)	1 (≈ 2.68 nM)	8.7 days	98%	7.7 days	78%	5.7 days	2%	–	–
N=C(N)N1CCC2(CC1)OOC1(O2)C2CC3CC(C2)CC1C3 (stereo not shown) [OZ191, Adamantane-2-spiro-3′-8′-amidino-1′,2′,4′-trioxa-8′-azaspiro[4.5]decane hydrochloride]	6	> 10	5.7 days	7%	5.7 days	5%	6.0 days	17%	–	–
Fc1ccc(OC2CCC3(CC2)OOC2(O3)C3CC4CC(C3)CC2C4)cc1 (stereo not shown) [OZ193]	5.5 (≈ 14.7 nM)	8.3 (≈ 22.2 nM)	9.3 days	99.75%	8.0 days	93%	11.0 days	99.92%	–	–
O=C(O)CCC(=O)N[C@H]1CC[C@]2(CC1)OOC1(O2)C2CC3CC(C2)CC1C3 (stereo partly shown) [OZ196]	> 10	> 10	6.0 days	10%	5.3 days	0%	5.7 days	17%	–	–
O=C(O)c1cccc([C@H]2CC[C@]3(CC2)OOC2(O3)C3CC4CC(C3)CC2C4)c1 (stereo partly shown) [OZ198]	> 10	> 10	5.7 days	4%	6.0 days	6%	5.7 days	6%	–	–
CCS(=O)(=O)CCN1CCC2(CC1)OOC1(O2)C2CC3CC(C2)CC1C3 (stereo not shown) [OZ200, Adamantane-2-spiro-3′-8′-[2′-(ethylsulfonyl)ethyl]-1′,2′,4′-trioxa-8′-azaspiro[4.5]decane]	1 (≈ 2.59 nM)	2.9 (≈ 7.52 nM)	7.0 days	81%	7.3 days	78%	8.0 days	92%	–	–
Fc1ccc(NC2CCC3(CC2)OOC2(O3)C3CC4CC(C3)CC2C4)cc1 (stereo not shown) [OZ201]	2 (≈ 5.36 nM)	3.1 (≈ 8.3 nM)	13 days	100/100/100%	10.3 days	100/100/100%	25 days	100/100/100%	–	–
CC(=O)OC(C)(C)C(=O)N[C@H]1CC[C@]2(CC1)OOC1(O2)C2CC3CC(C2)CC1C3 (stereo partly shown) [OZ202]	6 (≈ 14.7 nM)	7.9 (≈ 19.4 nM)	7.0 days	79%	7.3 days	51%	7.3 days	74%	–	–
O=C(N1CCCC1)N1CCC2(CC1)OOC1(O2)C2CC3CC(C2)CC1C3 (stereo not shown) [OZ203, Adamantane-2-spiro-3′-8′-(1′-pyrrolidinylcarbonyl)-1′,2′,4′-trioxa-8′-azaspiro[4.5]decane]	3.9 (≈ 10.8 nM)	6.7 (≈ 18.5 nM)	7.3 days	87%	8.7 days	99.42%	9.7 days	99.72%	–	–
COC(=O)c1ccc(C[C@H]2CC[C@]3(CC2)OOC2(O3)C3CC4CC(C3)CC2C4)cc1 (stereo partly shown) [OZ204]	> 10	> 10	6.0 days	0/0/0%	6.3 days	0/0/0%	6.0 days	0/0/0%	–	–
O=C1CNC(=O)N1C[C@H]1CC[C@]2(CC1)OOC1(O2)C2CC3CC(C2)CC1C3 (stereo partly shown) [OZ206]	1 (≈ 2.66 nM)	2.7 (≈ 7.17 nM)	8.0 days	93%	8.7 days	92%	9.7 days	91%	–	–
CCOC(=O)c1cccc([C@H]2CC[C@]3(CC2)OOC2(O3)C3CC4CC(C3)CC2C4)c1 (stereo partly shown) [OZ208]	–	–	6.3 days	0%	6.7 days	29%	5.7 days	10%	6 (≈ 14.5 nM)	6.5 (≈ 15.8 nM)
O=S(=O)(C[C@H]1CC[C@]2(CC1)OOC1(O2)C2CC3CC(C2)CC1C3)c1ccccc1 (stereo partly shown) [OZ210]	–	–	9.3 days	99.23%	8.0 days	77%	10.3 days	99.94%	1.4 (≈ 3.34 nM)	1.6 (≈ 3.82 nM)
c1cnn(C[C@H]2CC[C@]3(CC2)OOC2(O3)C3CC4CC(C3)CC2C4)c1 (stereo partly shown) [OZ211]	–	–	8.0 days	82%	7.3 days	78%	8.7 days	99.90%	1 (≈ 2.9 nM)	1.2 (≈ 3.48 nM)
O=C1c2ccccc2S(=O)(=O)N1C[C@H]1CC[C@]2(CC1)OOC1(O2)C2CC3CC(C2)CC1C3 (stereo partly shown) [OZ212]	–	–	6.7 days	66%	6.7 days	25%	8.0 days	59%	2.7 (≈ 5.88 nM)	2.9 (≈ 6.31 nM)
CONC(=O)C[C@H]1CC[C@]2(CC1)OOC1(O2)C2CC3CC(C2)CC1C3 (stereo partly shown) [OZ213]	–	–	8.0/8.0/8.0 days	83%	8.0/8.0/8.0 days	74%	8.0/8.0/8.0 days	85%	2.3 (≈ 6.54 nM)	2.8 (≈ 7.97 nM)
O=C(O)c1ccc(C[C@H]2CC[C@]3(CC2)OOC2(O3)C3CC4CC(C3)CC2C4)cc1 (stereo partly shown) [OZ214]	–	–	6.3 days	44%	7.3 days	54%	7.7 days	65%	> 10	> 10

Source: patent US6825230B2, “Spiro and dispiro 1,2,4-trixolane antimalarials” (Medicines for Malaria Venture MMV, priority 2002, dated 2004)
